In the experiment the target is Pin1 (murine embryonic fibroblasts) (Mus musculus, UniProt Q9QUR7). As to the kind of experiment: EGCG-Sepharose pull-down from MEF lysates. The format is cell-based.
Pin1 (murine embryonic fibroblasts), sequence (Q9QUR7 whole entry): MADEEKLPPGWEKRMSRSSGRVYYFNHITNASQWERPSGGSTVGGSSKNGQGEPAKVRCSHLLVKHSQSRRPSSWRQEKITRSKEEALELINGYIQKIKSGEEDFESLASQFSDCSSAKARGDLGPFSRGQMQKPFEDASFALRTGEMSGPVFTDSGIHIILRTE

As for `O=C(O[C@@H]1Cc2c(O)cc(O)cc2O[C@@H]1c1cc(O)c(O)c(O)c1)c1cc(O)c(O)c(O)c1` [EGCG, epigallocatechin-3-gallate], the inhibition constant Ki – broadly, a measure of affinity in units of concentration, obtained from inhibition or displacement – amounted to 45 µM. This lies in the double-digit micromolar range.

Source of the values: publication PMC3244823 (2011).
